Measured values: US9061981B2, “Diphenyl substituted cyclohexane derivatives, useful as modulators of the estrogen receptors beta” (Acadia Pharmaceuticals Inc., priority 2011, dated 2015)

What was measured:
ERβ [1] = molecular target: T1, ERβ (Homo sapiens, UniProt Q92731); test: Luciferase reporter gene assay (3*ERE) in HEK293 cells, ERβ; type: cell-based; set-up: expressed in transfected cells; host or cells: HEK293 cells, transient transfection
Method: (§1) HEK293 cells were grown to 70% confluency in DMEM containing 10% calf serum (Hyclone) prior to transfection. On the day of transfection (day 1), expression vectors for ERα or ERβ were cotransfected along a construct containing a synthetic 3*ERE upstream of the luciferase gene (Panomics), using Polyfect (Qiagen) per manufacturer's recommendations (ERE being estrogen response element). Sixteen hours post-transfection, cells were incubated in serum free DMEM. […] Cells extracts were then obtained by lyzing and the Luciferase activity measured, all of these steps performed using a commercially available kit (Promega).

[2] = tested on: bilateral 6-hydroxydopamine (6OHDA) lesion of the substantia nigra; test: Bilateral 6OHDA lesion of the substantia nigra, behavioral assessment; type: in vivo, Male rats; settings: 6OHDA rats, once daily 7 days sc; 10 mg/kg (estradiol 100 μg/kg)
Method: (§2) Male rats received baseline assessment of weight, motor function (spontaneous locomotor behavior, rotorod performance) and sensorimotor gating (prepulse inhibition). Subjects were assigned to treatment conditions to equalize performance on all these measures. Subjects were then treated once daily for 7 days with either sesame oil vehicle, estradiol (100 μg/kg sc), Comparative substance 131 (10 mg/kg sc), Compound 8 (10 mg/kg sc), Comparative substance 623 (10 mg/kg sc) or Comparative substance 957 (10 mg/kg sc). On the second day of treatment, subjects received bilateral sham or 6OHDA lesions (8 μg in 4 μl) of the substantia nigra (A/P−5.0 mm, M/L±1.6 mm, D/V−8.2 mm) following the atlas of Paxinos and Watson (Paxinos, G., Watson, C., The Rat Brain in Stereotaxic Coordinates, Fourth Edition, New York: Academic Press, Spiral Bound, 1998). Behavioral assessments of motor function (spontaneous locomotion, rotorod and traversing a challenging beam), cognition (novel object recognition) and sensorimotor gating (prepulse inhibition) began after the final day of treatment. Following behavioral assessment, SN and striatal tissue were collected in order to determine the intactness of the nigrostriatal dopamine system.

ERβ [3] = molecular target: T1, ERβ; test: Competitive 3H-estradiol binding assay, ERβ; set-up: expressed in transfected cells; host or cells: HEK293 cells, transient transfection
Method: (§3) Cells were then harvested by scraping in ice-cold PBS and subsequently lysed using a cold buffer containing 10 mM Tris pH 7.4, 1 mM EDTA, 1 mM DTT before being subjected to polytron twice for 10 seconds. Cytosolic extracts were isolated by centrifugation at 15000 g for 30 minutes at 4° C. Competitive binding of the test compounds or the estradiol control was performed on 20 μL extract by overnight incubation at 4° C. in a total volume of 100 μL containing 1 nM ^3H-estradiol (Perkin Elmer, Boston, Mass.). The bound fraction was separated from the unbound one by the addition of 100 μL of Dextran coated charcoal, incubated for 10 minutes and subsequent centrifugation at 1000 rpm for 10 minutes. Samples (100 μL per sample) were then analyzed by liquid scintillation. Data was then analyzed using the curve fitting software GraphPad Prism.

ERα [4] = molecular target: T2, ERα (Homo sapiens, UniProt P03372); test: Luciferase reporter gene assay (3*ERE) in HEK293 cells, ERα; type: cell-based; set-up: expressed in transfected cells; host or cells: transient transfection; settings: 48 hours
T2 sequence (P03372 1-595): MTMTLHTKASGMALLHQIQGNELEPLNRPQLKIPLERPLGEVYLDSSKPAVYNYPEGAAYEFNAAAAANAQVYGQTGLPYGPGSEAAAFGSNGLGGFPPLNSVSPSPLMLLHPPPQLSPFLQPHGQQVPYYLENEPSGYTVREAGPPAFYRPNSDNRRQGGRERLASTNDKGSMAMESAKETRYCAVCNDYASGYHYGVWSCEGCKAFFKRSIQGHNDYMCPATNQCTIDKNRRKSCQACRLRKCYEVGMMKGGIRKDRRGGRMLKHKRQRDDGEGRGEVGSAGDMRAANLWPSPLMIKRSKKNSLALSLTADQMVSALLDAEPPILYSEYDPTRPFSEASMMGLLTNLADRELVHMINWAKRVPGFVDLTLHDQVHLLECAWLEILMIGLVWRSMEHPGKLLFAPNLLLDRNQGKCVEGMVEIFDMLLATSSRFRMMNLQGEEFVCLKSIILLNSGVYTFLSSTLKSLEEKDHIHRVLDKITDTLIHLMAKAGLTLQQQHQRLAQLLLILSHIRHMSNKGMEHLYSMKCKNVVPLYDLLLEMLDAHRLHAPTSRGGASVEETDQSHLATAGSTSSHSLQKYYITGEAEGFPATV
Method: as §1

[5] = tested on: nigrostriatal dopamine neurons; test: Tyrosine hydroxylase immunofluorescence in SN and STR after 6OHDA lesion; type: in vivo, Male rats; settings: 6OHDA rats, once daily 7 days sc; 10 mg/kg (estradiol 100 μg/kg)
Method: as §2
Comparative compound 131 and Compound 8 were compared with estradiol for their ability to protect nigrostriatal dopamine neurons as measured by tyrosine hydroxylase (TH) immunohistochemistry in the SN and striatum (STR).

ERβ [6] = molecular target: T1, ERβ; test: R-SAT functional assay, ERβ; type: cell-based; set-up: expressed in transfected cells; host or cells: transient transfection
[7] = Microsomal bioavailability (Table 2); type: in vitro ADME; settings: read-out: Microsomal bioavailability F (%)
ERβ [8] = molecular target: T1, ERβ; test: R-SAT functional assay, ERβ; type: cell-based; set-up: expressed in transfected cells; host or cells: transient transfection; settings: NIH3T3; NIH-3T3 cells; read-out: R-SAT Erβ % Eff
From the text: (§4) R-SAT® (Receptor Selection and Amplification Technology) is a cell-based functional assay that allows one to monitor receptor-dependent proliferative responses and has been described elsewhere. […] This process is achieved by partial cellular transformation via loss of contact inhibition and growth factor dependency. Monitoring is achieved by transfecting the cells with a β-galactosidase reporter gene vector whose expression is under a constitutively active promoter. Briefly, NIH-3T3 fibroblasts were plated overnight in 96-wells plates in DMEM 10% calf serum (Hyclone) and grown to 60-70% confluency prior to transfection. Transient transfections were performed using Polyfect (Qiagen) according to manufacturer's instructions. Typically a transfection mix would consist of the receptor and the β-galactosidase expression vectors. Sixteen hours post-transfection, cells were incubated with different doses of ligand in DMEM containing 30% Ultraculture (Hyclone) and 0.4% calf serum (Hyclone) to generate a dose response curve. […] Plates were read using a microplate reader at 420 nm. Data from R-SAT® assays were fit to the equation: r=A+B(x/(x+c)), where A=minimum response, B=maximum response minus minimum response, c=EC50, r=response, and x=concentration of ligand. Curves were generated using the curve fitting softwares Excel Fit and GraphPad Prism (San Diego, Calif.). Luciferase Reporter Gene Assay

ERα [9] = molecular target: T2, ERα; test: R-SAT functional assay, ERα; type: cell-based; set-up: expressed in transfected cells; host or cells: NIH-3T3 fibroblasts, transient transfection; settings: NIH-3T3 cells
From the text: as §4

ERα [10] = molecular target: T2, ERα; test: Competitive 3H-estradiol binding assay, ERα; settings: 1 nM 3H-estradiol, HEK293T cytosolic extract; read-out: Binding ERα pKi (converted)
Method: as §3, with “HEK293T cells were transiently transfected for 48 hours with expression vectors encoding ERα or ERβ, before being serum starved for 4-6 hours. Cells” for “Cells”

T1 sequence (Q92731 whole entry, species assumed): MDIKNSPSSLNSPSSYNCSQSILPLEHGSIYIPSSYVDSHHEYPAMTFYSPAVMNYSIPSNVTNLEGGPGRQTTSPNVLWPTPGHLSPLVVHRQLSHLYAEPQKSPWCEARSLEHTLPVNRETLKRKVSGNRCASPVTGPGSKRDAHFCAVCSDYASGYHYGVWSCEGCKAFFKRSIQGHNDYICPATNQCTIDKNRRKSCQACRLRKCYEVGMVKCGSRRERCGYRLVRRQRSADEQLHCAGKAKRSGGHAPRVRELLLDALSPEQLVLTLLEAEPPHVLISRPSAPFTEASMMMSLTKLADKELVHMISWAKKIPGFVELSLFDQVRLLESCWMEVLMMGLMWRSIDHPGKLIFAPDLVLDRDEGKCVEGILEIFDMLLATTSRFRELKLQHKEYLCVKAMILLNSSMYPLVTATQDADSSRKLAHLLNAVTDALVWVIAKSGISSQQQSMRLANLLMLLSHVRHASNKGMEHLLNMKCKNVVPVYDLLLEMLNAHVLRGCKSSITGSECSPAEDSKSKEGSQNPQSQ

Oc1ccc(C2(c3ccccc3)CCCCC2)cc1 [Compound 131]
EC50 (ERβ [1]): 20 nM | Emax (ERβ [1]; HEK293 cells, 48 hours, read-out: Luciferase Erβ % Eff): 80% | motor performance (spontaneous locomotor activity, rotorod, challenging beam) [2]: prevented the impairment | novel object recognition (cognition) [2]: showed improved memory | prepulse inhibition (sensorimotor gating) [2]: prevented the 6OHDA-induced deficit in PPI | Ki (ERβ [3]): 50.1 nM | Luciferase Erα % Eff (ERα [4]): 29% | EC50 (ERα [4]; na = not active, read-out: Luciferase Erα pEC50 (converted)): 15800 nM | percent immunopositive and mean pixel intensity of TH immunofluorescence in the STR [5]: increase in percentage of the image that was immunopositive and increased mean pixel intensity | percent immunopositive, mean cell size and mean pixel intensity of TH immunofluorescence in the SN [5]: improved percent immunopositive, mean cell size and mean pixel intensity | tyrosine hydroxylase positive cell number in the SN [5]: prevented the reduction in cell number | EC50 (ERβ [6]): 31.6 nM | Microsomal bioavailability (predicted from microsomes) [7]: 0% | Emax (ERβ [8]): 71% | R-SAT Erα % Eff (ERα [9]): 42% | Ki (ERα [10]): 1000 nM
